Assay results: patent US20030187261A1, “Purine derivatives, process for their preparation and use thereof” (priority 2000, published 2003)
Read-outs that look alike come from different tables or passages of the source.

Assays:
B16 melanoma = experiment: MTT cytotoxicity assay, B16; assay type: cell-based, mouse; conditions: 72 hours (TCS50 in the method)
Description: (§1) One of the parameters used as the basis for colorimetric assays is the metabolic activity of viable cells. For example, a microtiter assay, which uses the tetrazolium salt MTT, is now widely used to quantitate cell proliferation and cytotoxicity. For instance, this assay is used in drug screening programs and in chemosensitivity testing. Because only metabolically active cells cleave tetrazolium salts, these assays detect viable cells exclusively. In the case of MTT assay, yellow soluble tetrazolium salt is reduced to coloured water-insoluble formazan salt. After it is solubilized, the formazan formed can easily and rapidly be quantified in a conventional ELISA plate reader at 570 nm (maximum absorbance). The quantity of reduced formazan corresponds to number of vital cells in the culture. Human T-lymphoblastic leukemia cell line CEM; promyelocytic HL-60 and monocytic U937 leukemias; breast carcinoma cell lines MCF-7, BT549, MDA-MB-231; glioblastoma U87MG cells; cervical carcinoma cells HELA; sarcoma cells U20S and Saos2; hepatocellular carcinoma HepG2; mouse immortalized bone marrow macrophages B2.4 and B10A.4; P388D1 and L1210 leukemia; B16 and B16F10 melanomas were used for routine screening of the compounds according to the invention. The cells were maintained in Nunc/Corning 80 cm^2 plastic tissue culture flasks and cultured in cell culture medium (DMEM with 5 g/l glucose, 2 mM glutamine, 100 U/ml penicillin, 100 μg/ml streptomycin, 10% fetal calf serum and sodium bicarbonate).
(§2) The cell suspensions that were prepared and diluted according to the particular cell type and the, expected target cell density (2500-30000 cells per well based on cell growth characteristics) were added by pipette (80 μl) into 96-well microtiter plates. Inoculates were allowed a pre-incubation period of 24 hours at 37° C. and 5% CO2 for stabilisation. Four-fold dilutions of the intended test concentration were added at time zero in 20 μl aliquots to the microtiter plate wells. Usually, test compound was evaluated at six 4-fold dilutions. In routine testing, the highest well concentration was 266.7 μM, but it can be the matter of change dependent on the agent. All drug concentrations were examined in duplicates. Incubations of cells with the test compounds lasted for 72 hours at 37° C., in 5% CO2 atmosphere and 100% humidity. At the end of incubation period, the cells were assayed by using the MTT. Ten microliters of the MTT stock solution were pipetted into each well and incubated further for 1-4 hours. After this incubation period, formazan was solubilized by addition of 100 μl/well of 10% SDS in water (pH=5.5) followed by further incubation at 37° C. overnight. The optical density (OD) was measured at 540 nm with the Labsystem iEMS Reader MF (UK). The tumour cell survival (TCS) was calculated using the following equation: TCS=(ODdrug exposed well/mean ODcontrol wells)×100%. The TCS50 value, the drug concentration lethal to 50% of the tumour cells, was calculated from the obtained dose response curves.
(§3) The cytoxicity of novel compounds was tested on panel of cell lines of different histogenetic and species origin (Table 7). Equal activities were found in all tumour cell lines tested. […] Importantly, this observation distinguishes the purine derivatives of the invention from flavopiridol and related compounds, as their biological activity is dependent on p53 status.

[1] = system: T-lymphoblastic leukemia cell line CEM; experiment: MTT cytotoxicity assay, CEM; assay type: cell-based, human; conditions: 72 hours (TCS50 in the method)
Description: as §1, §2, §3

normal human lymphocytes = experiment: concanavalin A induced lymphocyte proliferation, [3H]-TdR incorporation; assay type: cell-based; conditions: 72 hours, read-out: ED50 (the source's name)
Experimental: Human heparinized peripheral blood was obtained from healthy volunteers by cubital vein punction. The blood was diluted in PBS (1:3) and mononuclear cells were separated by centrifugation in Ficoll-Hypaque density gradient (Pharmacia, 1.077 g/ml) at 2200 rpm for 30 minutes. Following centrifugation, lymphocytes were washed in PBS and resuspended in cell culture medium (RMPI 1640, 2 mM glutamine, 100 U/ml penicillin, 100 μg/ml streptomycin, 10% fetal calf serum and sodium bicarbonate).
The cells were diluted at target density of 1100000 cells/ml and were added by pipette (180 μl) into 96/well microtiter plates. Four-fold dilutions of the intended test concentration were added at time zero in 20 μl aliquots to the microtiter plate wells. Usually, test compound was evaluated at six 4-fold dilutions. In routine testing, the highest well concentration was 266.7 μM. All drug concentrations were examined in duplicates. All wells with exception of unstimulated controls were activated with 50 μl of concanavalin A (25 μg/ml). Incubations of cells with test compounds lasted for 72 hours at 37° C., in 5% CO2 atmosphere and 100% humidity. At the end of incubation period, the cells were assayed by using the [^3H]-TdR:
Cell cultures were incubated with […] (20 μl of stock solution 500 μCi/ml) per well for 6 hours at 37° C. and 5% CO2. The automated cell harvester was used to lyse cells in water and adsorb the DNA onto glass-fiber filters in the format of microtiter plate. The DNA incorporated [^3H]-TdR was retained on the filter while unincorporated material passes through. The filters were dried at room temperature overnight, sealed into a sample bag with 10-12 ml of scintillant. The amount of [^3H]-TdR present in each filter (in cpm) was determined by scintillation counting in a Betaplate liquid scintillation counter. The effective dose of immunosuppressant (ED) was calculated using the following equation: ED=(cpmdrug exposed well/mean cpmcontrol wells)×100%. The EDs50 value, the drug concentration inhibiting proliferation of 50% of lymphocytes, was calculated from the obtained dose response curves.
To evaluate immunosuppressive activity of substituted adenines, their ability to inhibit polyclonal mitogen induced proliferation of normal human lymphocytes was analyzed (Table 8). […] Effective immunosuppressive dose of new derivatives under in vitro conditions was close to 1-20 μM.

CDC2 = target: T1, CDC2 (Homo sapiens, UniProt P06493); experiment: p34cdc2 (CDC2) kinase inhibition assay, histone H1 substrate; assay type: biochemical
T1 construct: made in house; host or cells: Sf9 insect cells, baculovirus co-infection

IκB-α = IκB-α kinase-inhibitory activity; assay type: biochemical; conditions: Table 3
Description: Modification of 2,6,9-trisubstituted purines by a catechol-like substituent at R6 leads to an increase in cdk inhibitory activity of the tested compounds.

[2] = system: PHA-stimulated lymphocytes (PBMC); experiment: cell number of PHA-stimulated lymphocytes (PBMC), flow cytometry; assay type: cell-based, human; conditions: 96 hours, in the presence of IL-2; for CC50: Homo sapiens, Lymphocyte, read-out: Lymphocytes IC50
Experimental: Human peripheral blood mononuclear cells were isolated by density gradient (Ficoll-Hypaque) (LSM, ICN Biomedicals Inc.). PBMC were stimulated with 5 μg/ml phytohemaglutinin A (PHA) (Sigma) during 24-48 hours in IMDM supplemented with 10% FCS (IMDM/10% FCS) at 37° C. After washing off the PHA, PBMC were incubated with interleukin-2 (IL-2) (10 U/ml) (Genzyme).
(§4) Cells were plated at 10000 per well in 200 μl IMDM medium and incubated with 0-50 μM of the compounds of the invention (Table 5), by addition of the drugs directly to the culture medium and incubated at 37° C. for 96 hours. Absolute cell number was determined by addition of a known concentration of Fluoresbrite microspheres (FITC) (Polysciences, Inc.). The absolute number of cells per well was calculated as: {(total number of beads added per well)/(number of beads measured)}×(number of measured cells in the gate of interest). All analyses were performed with a FACScan (BD), using CELLQuest software (Becton Dickinson).
The novel compounds were tested for cytotoxicity on PHA-stimulated lymphocytes (PBMC), as one of the normal counterparts of the cell lines. Cells were grown for 96 hours in the presence of IL-2 and different concentrations of the novel compounds and cell number was counted on the flow cytometer.

[3] = system: T-lymphocyte leukemia Molt3 cell line; experiment: cell growth of Molt3 cell line, flow cytometric cell count; assay type: cell-based, human; conditions: 96 hours of culture
Experimental: Cell lines: Human leukemic cell lines were obtained from the American Type Culture Collection (ATCC, Rockville, Md., USA). They were cultured in Iscove's Modified Dulbecco's Medium (IMDM) supplemented with 10% heat inactivated fetal calf serum (FCS), 200 U/ml penicillin, 200 μg/ml streptomycin and 1 μg/ml amphotericin B. Cells were cultured in a 5% CO2-95% air fully humidified incubator. For effects on clonogenic output, 1000 cells/well were plated in duplicate in methylcellulose (0.9%), supplemented with 20% FCS and cultured for 14 days.
as §4
The response of the myeloid leukemia KG1 and T-lymphocyte leukemia Molt3 cell lines to the cytostatic effect of the novel compounds was determined using the above-mentioned standardized bead suspension that was used to determine the absolute cell number by flow cytometric (FCM) measurement. Cells were grown in the presence of increasing concentrations of the compounds of the invention.

[4] = system: myeloid leukemia KG1 cell line; experiment: cell growth of KG1 cell line, flow cytometric cell count; conditions: read-out: KGI IC50
Experimental: To determine reversibility of the effects of the new compounds, cells were plated at 10,000 per well and exposed to 0-50 μM of the composed, either continuously for 7 days (control) or only for 6 hours. In the latter case, cells were washed after 6 hours in phosphate-buffered-saline (PBS) (Life Technologies) and reseeded into drug-free medium for 7 days.

[5] = Table 5, CDC2 activity in cell free system

T1 sequence (P06493 whole entry, species assumed): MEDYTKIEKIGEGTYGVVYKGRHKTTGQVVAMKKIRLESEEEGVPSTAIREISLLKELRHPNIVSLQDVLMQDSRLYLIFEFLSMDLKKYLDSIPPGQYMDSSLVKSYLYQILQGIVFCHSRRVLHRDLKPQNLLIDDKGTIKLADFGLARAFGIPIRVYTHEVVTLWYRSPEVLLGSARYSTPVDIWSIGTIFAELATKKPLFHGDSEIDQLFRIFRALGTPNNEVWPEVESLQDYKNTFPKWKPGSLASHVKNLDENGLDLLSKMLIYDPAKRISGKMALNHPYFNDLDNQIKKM
T1 sequence (P14635 whole entry partner, species assumed): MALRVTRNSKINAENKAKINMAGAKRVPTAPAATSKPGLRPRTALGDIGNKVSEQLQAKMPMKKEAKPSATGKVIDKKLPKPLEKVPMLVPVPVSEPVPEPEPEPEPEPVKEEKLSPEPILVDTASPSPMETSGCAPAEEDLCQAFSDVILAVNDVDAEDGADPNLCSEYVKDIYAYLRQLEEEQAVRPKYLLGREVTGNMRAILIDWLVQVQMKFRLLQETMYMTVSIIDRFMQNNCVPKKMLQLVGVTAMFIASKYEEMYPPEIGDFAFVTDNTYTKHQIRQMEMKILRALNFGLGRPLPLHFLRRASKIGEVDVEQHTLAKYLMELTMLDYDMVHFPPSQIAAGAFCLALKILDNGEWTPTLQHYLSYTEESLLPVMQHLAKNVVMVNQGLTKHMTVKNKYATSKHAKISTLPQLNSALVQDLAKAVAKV

Compound	IC50 (B16 melanoma) [µM]	IC50 [1] [µM]	EC50 (normal human lymphocytes) [µM]	further results
CC(C)n1cnc2c(NCc3ccc(O)c(O)c3)nc(NCCO)nc21	32	35	–	–
CC(C)n1cnc2c(N(C)CCc3ccc(O)c(O)c3)nc(NCCO)nc21	26	27	4	–
CN(CCc1ccc(O)c(O)c1)c1nc(NCCO)nc2c1ncn2C	–	–	–	IC50 (CDC2; Table 3): 10.2 µM; IC50 (IκB-α): 25.4 µM
CCCCCCNc1nc(NCc2ccc(O)c(O)c2)c2ncn(C(C)C)c2n1	21	22	–	–
CCCCCCNc1nc(N(C)CCc2ccc(O)c(O)c2)c2ncn(C(C)C)c2n1	32	33	15	IC50 (CDC2; Table 3): 2.6 µM
CC(C)n1cnc2c(NCc3ccc(O)c(O)c3)nc(NC[C@@H](C)O)nc21	41	35	–	–
CC(C)n1cnc2c(N(C)CCc3ccc(O)c(O)c3)nc(NC[C@@H](C)O)nc21	14	13	7	–
CC(C)n1cnc2c(NC(CO)c3ccccc3)nc(NC[C@@H](C)O)nc21 (some centres unmarked)	74.6	70	23	–
CC(O)CNc1nc(NC(CO)c2ccccc2)c2ncn(C(C)C)c2n1 (centres unmarked)	–	–	–	IC50 (CDC2; Table 3): 0.6 µM
CC[C@@H](CO)Nc1nc(NCc2ccc(O)c(O)c2)c2ncn(C(C)C)c2n1	53	51	–	–
CC[C@@H](CO)Nc1nc(N(C)CCc2ccc(O)c(O)c2)c2ncn(C(C)C)c2n1	34	36	1.8	–
CC[C@@H](CO)Nc1nc(NC(CO)c2ccccc2)c2ncn(C(C)C)c2n1 (some centres unmarked)	24	20	14	–
CC(C)n1cnc2c(NCc3ccc(O)c(O)c3)nc(NC[C@H](C)O)nc21	10	12	–	–
CC(C)n1cnc2c(N(C)CCc3ccc(O)c(O)c3)nc(NC[C@H](C)O)nc21	40	43	8	–
CC(C)n1cnc2c(NC(CO)c3ccccc3)nc(NC[C@H](C)O)nc21 (some centres unmarked)	5.6	8	27	–
CC(C)n1cnc2c(NC(CO)c3ccccc3)nc(NCCO)nc21 (racemic)	19	18	38	IC50 (CDC2; Table 3): 1.4 µM
CC(C)n1cnc2c(NC(CO)c3ccccc3)nc(CCCCCC#N)nc21 (racemic) [P24, 2-(5-cyanopentyl)-6-[(R,S)-(1-phenyl-2-hydroxyethyl)amino]-9-isopropylpurine]	–	–	–	IC50 [2]: 33 ± 4.4 µM; IC50 [3]: 42.5 ± 6 µM; IC50 (CDC2; [5]): 6.3 µM; IC50 ([4]; 96 hours of culture): 42 ± 4.8 µM
CCCCCCNc1nc(NC(C)c2ccc(O)c(O)c2)c2ncn(C(C)C)c2n1 (centres unmarked) [P17]	–	–	–	IC50 [2]: 18 ± 2.8 µM; IC50 [3]: 24 ± 6.2 µM; IC50 (CDC2; [5]): 1 µM; IC50 ([4]; 96 hours of culture): 35.3 ± 5.7 µM
CC(Nc1nc(NCCCO)nc2c1ncn2C(C)C)c1ccc(O)c(O)c1 (centres unmarked) [P18]	–	–	–	IC50 [2]: 14.9 ± 2.9 µM; IC50 [3]: 23 ± 2.8 µM; IC50 (CDC2; [5]): 2.6 µM; IC50 ([4]; 96 hours of culture): 18.7 ± 0.3 µM
CC[C@H](CO)Nc1nc(NCc2ccc(O)cc2)c2ncn(C(C)C)c2n1 [P19]	–	–	–	IC50 [2]: 6 µM; IC50 [3]: 15 ± 2 µM; IC50 ([4]; 96 hours of culture): 11 ± 1.3 µM
CC(Nc1nc(NCCCO)nc2c1ncn2C(C)C)c1ccc(O)c(O)c1 (centres unmarked) [P20]	–	–	–	IC50 [2]: 35 ± 7.3 µM
Cn1cnc2c(NC(CO)c3ccccc3)nc(N3CCOCC3)nc21 (centres unmarked) [P21, 2-(morpholino)-6-(1-phenyl-2-hydroxyethylamino)-9-methylpurine]	–	–	–	CC50 [2]: 40 ± 7.7 µM; IC50 ([3]; Homo sapiens, MOLT-3): 50 ± 1.3 µM; IC50 (CDC2; [5]): 6.5 µM; IC50 ([4]; Homo sapiens, KG-1, 96 h): 48 ± 1.5 µM
CC(C)n1cnc2c(NC(CO)c3ccccc3)nc(SCCO)nc21 (centres unmarked) [P22, 2-(2-hydroxyethylthio)-6-(1-phenyl-2-hydroxyethylamino)-9-isopropylpurine]	–	–	–	CC50 [2]: 11 ± 1.5 µM; IC50 ([3]; Homo sapiens, MOLT-3): 17 ± 1.7 µM; IC50 (CDC2; [5]): 3.8 µM; IC50 ([4]; Homo sapiens, KG-1, 96 h): 13 ± 1.4 µM
CC(C)n1cnc2c(SCc3ccccc3)nc(NCCCO)nc21 [P25, 2-(3-hydroxypropylamino)-6-benzylthio-9-isopropylpurine]	–	–	–	CC50 [2]: 18 ± 1.6 µM; IC50 ([3]; Homo sapiens, MOLT-3): 19 ± 2 µM; IC50 (CDC2; [5]): > 100 µM; IC50 ([4]; Homo sapiens, KG-1, 96 h): 42 ± 5 µM
CC(C)n1cnc2c(NC(CO)c3ccccc3)nc(NCC(O)CO)nc21 [P26, 2-(2,3-dihydroxypropylamino)-6-[(R,S)-(1-phenyl-2-hydroxyethyl)amino]-9-isopropylpurine]	–	–	–	CC50 [2]: 20 ± 1 µM; IC50 ([3]; Homo sapiens, MOLT-3): 23.7 ± 3.4 µM; IC50 (CDC2; [5]): > 100 µM; IC50 ([4]; Homo sapiens, KG-1, 96 h): 20 ± 1 µM
